From patent publication US20240299698A1, “PREVENTION AND TREATMENT OF POST-OPERATIVE COGNITIVE DYSFUNCTION (POCD)” (Noetix Pharma LLC, priority 2022, published 2024)

Key:
[1] = Macias-Barragan J, et al.; cited from earlier work
[2] = Stability of pirfenidone dose preparation in vehicle; assay type: physicochemical; conditions: 0.9% saline
Description: • Vehicle: 0.9% saline • Working concentration: 66.67 mg/ml • Preparation: Add 1000 mg of pirfenidone to 15 mL of 0.9% saline • Stability in vehicle: Stable for a minimum of 8 days
• Vehicle: 0.9% saline • Working concentration: 33.33 mg/mL • Preparation: Add 12 mL of high dose pirfenidone to 12 mL of 0.9% saline • Stability in vehicle: Stable for a minimum of 8 days

mouse model of (POCD) [3] = test: Morris water maze testing and probe trial in laparotomy mouse model of POCD; assay type: in vivo, Male C57BI/6 mice; conditions: PSD7
Source text: To induce POCD, mice were anesthetized with isoflurane and maintained at a surgical plane of anesthesia (2-2.5%). The abdomen was shaved and cleaned/disinfected with both betadine and ethanol (70%). A 1.5 cm vertical incision was made along the midline of the abdomen, perforating the skin and the peritoneal cavity. A sterile blunt probe was inserted into the cavity, and the abdominal viscera and musculature were manipulated for five minutes. Abdominal muscles and skin were sutured, polysporin and topical lidocaine were applied to the incision site, and buprenorphine (0.1 mg/kg s.c.) was administered. Animals were placed into a clean, pre-warmed home cage for recovery and housed singly thereafter.
Morris water maze testing is a well-established method for evaluating spatial learning and memory. To navigate this maze, the mouse must use extra-maze cues to locate a hidden platform and escape from the water. Testing was performed on PSD7. Mice were given two blocks of four 60 sec trials to find the hidden platform, with latency to reach the platform compared between blocks as a measure of learning/memory processes. Swim speed was evaluated to assess locomotor capabilities. On PSD8 (i.e., 24 hours later), mice were reintroduced into the maze without the platform present for a one-minute probe trial to assess reference memory.
The testing protocol was as follows: 1. The animal was brought into the testing room in a transfer cage. 2. Video recording was begun and the animal's ID card recorded. 3. The mouse was gently placed (i.e., not dropped) into the water at the appropriate start location (N, S, E, or W) facing the pool wall. 4. For 60 seconds, the mouse was allowed to locate and climb onto the submerged platform. If the mouse was unable to locate the platform within the allotted time, it was gently guided there and assigned a score of 61 seconds. 5. The mouse was allowed 60 seconds to recover on the platform and observe the extra-maze cues. If the moused jumped into the water, it was immediately retrieved and placed back on the platform for the remaining duration of the inter-trial interval. 6. Steps 3-5 were repeated for a total of 4 trials (Block 1). 7. The mouse was returned to the transfer cage lined with a dry towel. It was allowed 5 minutes to rest. 8 Steps 3-5 were repeated for a total of 4 trials (Block 2). 9. The mouse was gently dried and returned to its home cage.
The probe session was conducted as follows: 1. The animal was brought into the testing room in a transfer cage. 2. Video recording was begun and the animal's ID card recorded. 3. The mouse was gently placed (i.e., not dropped) into the water at the appropriate start location (N, S, E, or W) facing the pool wall. 4. The mouse was allowed to swim freely for 60 seconds. 5. The mouse was gently dried and returned to its home cage.

mouse model of (POCD) [4] = test: Behavioral test battery, summary of experimental results; assay type: in vivo, Male C57BI/6 mice
Source text: The project included experiments performed to investigate the therapeutic effects of administration of pirfenidone in a mouse model of (POCD). The model was developed during pilot work completed earlier in the study and was induced by performing a laparotomy with a 5-minute manipulation of abdominal viscera and musculature. Weights and physical condition of the animals were closely monitored throughout the study, with presurgical and daily post-surgical gavage of pirfenidone or saline administered. Behavioral testing was performed to evaluate alterations in learning and memory processes using fear conditioning, novel object recognition, and water maze paradigms. Following euthanasia on the eighth day post-surgery, hippocampal tissue was preserved and later evaluated for morphological characteristics related to microglial cell activation.
Behavioral testing was performed at various time points throughout the study as outlined in each separate section below and summarized in Table 2. All tests were recorded and analyzed by experimenters blinded to treatment. Data were obtained through a combination of experimenter scoring and use of AnyMaze™ Video Tracking System evaluation.

## Cc1ccc(=O)n(-c2ccccc2)c1 [pirfenidone, 5-methyl-1-phenyl-2-(1H)-pyridone]
[1]
  crossing of the blood brain barrier: can cross the blood brain barrier
[2]; 33.33 mg/mL (low dose)
  Stability in vehicle: ≥ 8 days
[2]; 66.67 mg/ml (high dose)
  Stability in vehicle: ≥ 8 days
Mouse model of (POCD) [3]; Acute vs Disease Controls, p=0.028
  latency to platform, overall (block x treatment): statistically significant decrease in latency to platform
Mouse model of (POCD) [3]; Acute vs Disease Controls, p=0.04, Tukey's HSD
  latency to platform, Block 1: found the platform faster than Disease Controls only
Mouse model of (POCD) [3]; Acute, p=0.61, paired t-test
  decrease in time to platform between blocks (spatial memory): not seen
Mouse model of (POCD) [3]; Chronic compared to both Disease and Normal Controls, p=0.02 and p=0.03, Tukey's HSD
  latency to platform, Block 1: statistically significant decrease in latency to platform
Mouse model of (POCD) [3]; Chronic vs Disease Controls, p=0.052
  latency to platform, overall (block x treatment): statistically significant decrease in latency to platform
Mouse model of (POCD) [3]; Chronic, p=0.54, paired t-test
  decrease in time to platform between blocks (spatial memory): not seen
Mouse model of (POCD) [3]; all groups, p=0.117, one-way ANOVA
  latency to platform, Block 2, between groups: no between groups main effect
Mouse model of (POCD) [4]; Acute pirfenidone treated animals
  behavioral testing responses (summary): equivalent to or better than those seen in Normal Controls
Mouse model of (POCD) [4]; Chronic pirfenidone administration
  behavioral testing responses (summary): beneficial effects, particularly for recognition memory
Mouse model of (POCD) [4]; overall, pirfenidone treatment
  behavioral changes associated with memory in postoperative cognitive dysfunction (summary): protective effect
